Where two headings read alike, the source gives them in different places.
Test system: cancer cell lines from the cancer cell line encyclopedia (CCLE)
Experiment: Cell line profiling (CLiP) proliferation experiment
Assay type: cell-based
Settings: for IC50: read-out: Crossing Point; for EC50: read-out: Inflection Point
Protocol: Compound profiling experiment and data analysis was performed as previously described. Data was imported and plotted using the Tibco Spotfire DXP application. Lines were categorized as sensitive, intermediate and refractory as follows: Amax<-40 & Inflection Point <2 ~ Sensitive, Amax>-20 & Inflection Point >10 ~ Refractory, all else were called Intermediate. Cancer Cell line HG-U133 Plus 2 data was processed and normalized as described. […] Five sets of refractory cell lines were generated from the pool of refractory cell lines trying to match the lineage composition of the set of sensitive cell lines. The limma package was used as previously described to perform the statistical comparison.

[1] = Homo sapiens, ZR-75-30, ZR-75-30 cell line, breast, ductal_carcinoma
[2] = KYO1, KYO-1 (haematopoietic_and_lymphoid_tissue)
[3] = LP-1 (haematopoietic_and_lymphoid_tissue)
[4] = Loucy (haematopoietic_and_lymphoid_tissue)
[5] = MOLM16, cell line MOLM-16 (haematopoietic_and_lymphoid_tissue)

**Q.** For `CC(C)[C@@]12C[C@@H](O)[C@@](C)(O1)[C@@H]1CC[C@@H](C)[C@H]1[C@@H]2OC(=O)/C=C/c1ccccc1` [Englerin B], which IC50 [1] is on record?
**A.** > 30 µM

**Q.** What about the EC50 [1] of the same compound?
**A.** 29.7 µM

**Q.** What about the IC50 (Hs766T, cell line Hs 766T, pancreas) of the same compound?
**A.** > 30 µM

**Q.** And the IC50 (Hs766T, cell line Hs 766T)?
**A.** > 30 µM

**Q.** What about the IC50 (Hs 940.T cells) of the same compound?
**A.** > 30 µM

**Q.** What about the IC50 (IGR-39, cell line IGR-39, skin) of the same compound?
**A.** > 30 µM

**Q.** What about the IC50 (IGR-39, cell line IGR-39) of the same compound?
**A.** > 30 µM

**Q.** What about the IC50 (JHH7, JHH-7) of the same compound?
**A.** 13.7 µM

**Q.** What about the IC50 (JHH-2, JHH-2) of the same compound?
**A.** > 30 µM

**Q.** What about the IC50 (JHH-2, cell line JHH-2) of the same compound?
**A.** > 30 µM

**Q.** And the IC50 (JHH-5)?
**A.** 12.4 µM

**Q.** What about the IC50 (JHOM-1) of the same compound?
**A.** 28.8 µM

**Q.** And the EC50 (JHOM-1)?
**A.** 28.8 µM

**Q.** And the IC50 (JHUEM-2)?
**A.** 15.2 µM

**Q.** And the IC50 (JHUEM-2 cells)?
**A.** 15.2 µM

**Q.** And the IC50 (K029AX (skin))?
**A.** > 30 µM

**Q.** And the IC50 (K029AX)?
**A.** > 30 µM

**Q.** What about the EC50 (K029AX) of the same compound?
**A.** 26.4 µM

**Q.** What about the IC50 (KASUMI-2) of the same compound?
**A.** 15.8 µM

**Q.** What about the EC50 (KASUMI-2) of the same compound?
**A.** 10.6 µM

**Q.** What about the IC50 (KASUMI-2 cells) of the same compound?
**A.** 15.8 µM

**Q.** And the EC50 (KASUMI-2 cells)?
**A.** 10.6 µM

**Q.** And the EC50 (KHM-1B, KHM-1B cells)?
**A.** 17.2 µM

**Q.** And the IC50 (KHM-1B)?
**A.** 19.5 µM

**Q.** What about the EC50 (KHM-1B) of the same compound?
**A.** 17.2 µM

**Q.** What about the IC50 (KMM-1, KMM-1) of the same compound?
**A.** 15.7 µM

**Q.** What about the IC50 (KMRC-1, KMRC-1) of the same compound?
**A.** > 30 µM

**Q.** What about the IC50 (KMRC-1, KMRC-1 cells) of the same compound?
**A.** > 30 µM

**Q.** And the IC50 (KMRC-2)?
**A.** > 30 µM

**Q.** And the IC50 (KMRC-2 cells)?
**A.** > 30 µM

**Q.** What about the IC50 (KMRC-20) of the same compound?
**A.** > 30 µM

**Q.** And the EC50 (KMRC-20)?
**A.** 0.14 µM

**Q.** And the IC50 (KMRC-20 cells)?
**A.** > 30 µM

**Q.** And the EC50 (KMRC-20 cells)?
**A.** 0.14 µM

**Q.** What about the IC50 (KMS-26, KMS-26) of the same compound?
**A.** 15.5 µM

**Q.** And the EC50 (KMS-26, KMS-26)?
**A.** 16.6 µM

**Q.** And the EC50 (KMS-26, KMS-26 cells)?
**A.** 16.6 µM

**Q.** What about the IC50 (KMS-27, KMS-27) of the same compound?
**A.** 28.4 µM

**Q.** And the EC50 (KMS-27, KMS-27)?
**A.** 28.4 µM

**Q.** What about the IC50 (KMS-27, KMS-27 cells) of the same compound?
**A.** 28.4 µM

**Q.** What about the EC50 (KMS-27, KMS-27 cells) of the same compound?
**A.** 28.4 µM

**Q.** What about the IC50 (KMS-28BM) of the same compound?
**A.** 29.2 µM

**Q.** And the IC50 (KMS-34, KMS-34)?
**A.** 27.9 µM

**Q.** What about the IC50 (KO52) of the same compound?
**A.** 27 µM

**Q.** And the IC50 (KP-1NL (pancreas))?
**A.** > 30 µM

**Q.** What about the IC50 (KP-1NL) of the same compound?
**A.** > 30 µM

**Q.** What about the IC50 (KP-N-SI9s) of the same compound?
**A.** 21.7 µM

**Q.** What about the EC50 (KP-N-SI9s) of the same compound?
**A.** 23.1 µM

**Q.** And the IC50 (KP-N-YN (autonomic_ganglia))?
**A.** > 30 µM

**Q.** What about the IC50 (KP-N-YN) of the same compound?
**A.** > 30 µM

**Q.** And the IC50 (KPL-1, KPL-1)?
**A.** 19.9 µM

**Q.** And the IC50 (KS-1)?
**A.** 28.3 µM

**Q.** What about the IC50 (KURAMOCHI (ovary)) of the same compound?
**A.** 20.7 µM

**Q.** And the EC50 (KURAMOCHI (ovary))?
**A.** 16.1 µM

**Q.** And the IC50 (KYM-1 (soft_tissue))?
**A.** 12.7 µM

**Q.** And the IC50 [2]?
**A.** 19.7 µM

**Q.** And the EC50 [2]?
**A.** 12.1 µM

**Q.** And the EC50 (KYO1, KYO-1 cells)?
**A.** 12.1 µM

**Q.** And the IC50 (Karpas-620, KARPAS-620)?
**A.** 17.6 µM

**Q.** What about the EC50 (Karpas-620, KARPAS-620) of the same compound?
**A.** 17.6 µM

**Q.** And the IC50 (Kelly)?
**A.** 15.4 µM

**Q.** What about the EC50 (Kelly) of the same compound?
**A.** 16 µM

**Q.** What about the IC50 (Ki-JK (haematopoietic_and_lymphoid_tissue)) of the same compound?
**A.** 14.5 µM

**Q.** What about the IC50 (Ki-JK) of the same compound?
**A.** 14.5 µM

**Q.** What about the EC50 (Ki-JK) of the same compound?
**A.** 14.1 µM

**Q.** And the IC50 (L3.3 (pancreas))?
**A.** > 30 µM

**Q.** And the IC50 (LC-1/sq-SF (lung))?
**A.** > 30 µM

**Q.** What about the EC50 (LC-1/sq-SF (lung)) of the same compound?
**A.** 22.8 µM

**Q.** And the IC50 (LK-2 (lung))?
**A.** > 30 µM

**Q.** What about the IC50 (LMSU (stomach)) of the same compound?
**A.** 20 µM

**Q.** What about the IC50 [3] of the same compound?
**A.** 18.7 µM

**Q.** What about the EC50 [3] of the same compound?
**A.** 18.7 µM

**Q.** And the IC50 (LP-6 (soft_tissue))?
**A.** > 30 µM

**Q.** And the IC50 (Li-7 (liver))?
**A.** > 30 µM

**Q.** What about the IC50 [4] of the same compound?
**A.** 13.6 µM

**Q.** What about the EC50 [4] of the same compound?
**A.** 12.2 µM

**Q.** What about the IC50 (MB 157 (breast)) of the same compound?
**A.** > 30 µM

**Q.** And the EC50 (MB 157 (breast))?
**A.** 14.7 µM

**Q.** And the IC50 (MCAS (ovary))?
**A.** > 30 µM

**Q.** What about the IC50 (MDST8, MDST8 (large_intestine)) of the same compound?
**A.** > 30 µM

**Q.** And the IC50 [5]?
**A.** 15.3 µM

**Q.** What about the EC50 [5] of the same compound?
**A.** 15.3 µM

**Q.** And the IC50 (Mel202, cell line Mel202 (eye))?
**A.** > 30 µM

**Q.** And the EC50 (Mel202, cell line Mel202 (eye))?
**A.** 20.6 µM

**Q.** What about the IC50 (Mel202, cell line Mel202) of the same compound?
**A.** > 30 µM

**Q.** And the IC50 (Mono-Mac-1, cell line MONO-MAC-1 (haematopoietic_and_lymphoid_tissue))?
**A.** 21.4 µM

**Q.** What about the IC50 (NCI-H196, NCI-H196, lung, small_cell_carcinoma) of the same compound?
**A.** > 30 µM

**Q.** What about the IC50 (NCI-H196, cell line NCI-H196) of the same compound?
**A.** > 30 µM

**Q.** And the IC50 (NCI-H841, NCI-H841, lung, small_cell_carcinoma)?
**A.** 17.1 µM

**Q.** And the IC50 (NCI-H1568, cell line NCI-H1568 (lung))?
**A.** 6.63 µM

**Q.** What about the IC50 (NCI-H1781, cell line NCI-H1781 (lung)) of the same compound?
**A.** 11.2 µM

**Q.** What about the IC50 (NCI-H1869, lung, squamous_cell_carcinoma) of the same compound?
**A.** > 30 µM
